{"source": "patent US10201499B2", "about": "“Nanoparticle formulation” (United Kingdom Research and Innovation, priority 2012, dated 2019)", "tested_on": "HT-29 cells", "details": "5 mM; p<0.01 vs control", "experimental": "FIG. 20. Mitochondrial calorimetry. HT-29 cells were treated with acetate (5 mM) or without (Control) and assessed for ATP production by the Seahorse assay in vitro."}
{"smiles": "CC(=O)O", "note": "[Acetate]", "values": [{"measurement": "ATP production", "result": "significantly increase"}]}
